Source: the supplement of paper PMC13380429

Experiments:
[1] = system: A549-ACE2 infected with SARS-CoV-2; assay: cell count relative to DMSO; higher = less toxic; details: 24 h
A549-ACE2 [2] = assay: phospholipidosis EC50; higher = less potent phospholipidosis inducer
A549-ACE2 [3] = assay: drug-induced phospholipidosis relative to tamoxifen; higher = more phospholipidosis
Caco-2 [4] = assay: cell viability relative to DMSO; higher = less toxic; details: 72 h
Vero E6 [5] = assay: as above; details: 72 h
U2OS [6] = assay: as above; details: 72 h
Calu-3 [7] = assay: as above; details: 72 h
HepG2 [8] = assay: as above; details: 72 h
[9] = system: A549-ACE2 infected with SARS-CoV-2; assay: morphology score (similarity to uninfected cells); higher = more like uninfected cells; details: 24 h
Caco-2 [10] = assay: relative viability EC50 (midpoint between 100% and the lowest measured viability); higher = less toxic; details: 72 h
Vero E6 [11] = assay: as above; details: 72 h
U2OS [12] = assay: as above; details: 72 h
Calu-3 [13] = assay: as above; details: 72 h
Caco-2 [14] = assay: drug sensitivity score (DSS) for viability; higher = more toxic; extreme values may be limits of the assay; details: 72 h
Vero E6 [15] = assay: as above; details: 72 h
U2OS [16] = assay: as above; details: 72 h
Calu-3 [17] = assay: as above; details: 72 h
HepG2 [18] = assay: as above; details: 72 h
[19] = system: A549-ACE2 infected with SARS-CoV-2; assay: SARS-CoV-2 infection rate relative to DMSO; higher = more infection; details: 24 h
HepG2 [20] = assay: relative viability EC50 (midpoint between 100% and the lowest measured viability); higher = less toxic; details: 72 h

CCN1CCN(c2ccc(C(C)(C)NC(=O)c3cc4[nH]c5ccccc5c(=O)c4cc3F)cn2)CC1
Details	SARS-CoV-2 infection rate [%]	cell count [%]	cell viability [%]	morphology score	phospholipidosis EC50 [µM]
A549-ACE2 [2], 24 h	–	–	–	–	11.6
Caco-2 [4], 1 nM	–	–	102	–	–
Caco-2 [4], 10 nM	–	–	105	–	–
Caco-2 [4], 100 nM	–	–	107	–	–
Caco-2 [4], 1000 nM	–	–	116	–	–
Caco-2 [4], 10000 nM	–	–	86.5	–	–
Calu-3 [7], 1 nM	–	–	96.4	–	–
Calu-3 [7], 10 nM	–	–	87.8	–	–
Calu-3 [7], 100 nM	–	–	92.7	–	–
Calu-3 [7], 1000 nM	–	–	76.7	–	–
Calu-3 [7], 10000 nM	–	–	43.3	–	–
HepG2 [8], 1 nM	–	–	95.7	–	–
HepG2 [8], 10 nM	–	–	104	–	–
HepG2 [8], 100 nM	–	–	103	–	–
HepG2 [8], 1000 nM	–	–	77	–	–
HepG2 [8], 10000 nM	–	–	52.9	–	–
U2OS [6], 1 nM	–	–	99.3	–	–
U2OS [6], 10 nM	–	–	96.5	–	–
U2OS [6], 100 nM	–	–	94.2	–	–
U2OS [6], 1000 nM	–	–	105	–	–
U2OS [6], 10000 nM	–	–	25.5	–	–
Vero E6 [5], 1 nM	–	–	109	–	–
Vero E6 [5], 10 nM	–	–	102	–	–
Vero E6 [5], 100 nM	–	–	102	–	–
Vero E6 [5], 1000 nM	–	–	97.2	–	–
Vero E6 [5], 10000 nM	–	–	92	–	–
[1], 0.3 µM	–	102	–	–	–
[1], 3 µM	–	93	–	–	–
[1], 10 µM	–	97	–	–	–
[1], 30 µM	–	72	–	–	–
[9], 0.3 µM	–	–	–	0.33	–
[9], 3 µM	–	–	–	0.74	–
[9], 10 µM	–	–	–	0.74	–
[9], 30 µM	–	–	–	0.53	–
[19], 0.3 µM	92	–	–	–	–
[19], 3 µM	34	–	–	–	–
[19], 10 µM	11	–	–	–	–
[19], 30 µM	25	–	–	–	–

drug-induced phospholipidosis [%], A549-ACE2 [3]
Details	0.3 µM	0.833333 µM	3.33333 µM	6.66667 µM	10 µM	30 µM
24 h	6.26	-2.09	-3.71	11.8	31.3	80.5
48 h	4.42	0.5	–	–	–	67.5
72 h	12.4	4.2	–	–	–	–

Details	drug sensitivity score	relative viability EC50 [µM]
Caco-2 [10]	–	> 10
Caco-2 [14]	0	–
Calu-3 [13]	–	1.18
Calu-3 [17]	5.6	–
HepG2 [18]	5.4	–
U2OS [12]	–	3.53
U2OS [16]	3.7	–
Vero E6 [11]	–	> 10
Vero E6 [15]	0	–

C[C@@H](O[C@H]1OCCN(Cc2nn[nH]c2CN(C)C)[C@H]1c1ccc(F)cc1)c1cc(C(F)(F)F)cc(C(F)(F)F)c1
Details	SARS-CoV-2 infection rate [%]	cell count [%]	cell viability [%]	morphology score	phospholipidosis EC50 [µM]
A549-ACE2 [2], 24 h	–	–	–	–	3.41
A549-ACE2 [2], 48 h	–	–	–	–	3.74
A549-ACE2 [2], 72 h	–	–	–	–	4.73
Caco-2 [4], 1 nM	–	–	97	–	–
Caco-2 [4], 10 nM	–	–	94.6	–	–
Caco-2 [4], 100 nM	–	–	99.9	–	–
Caco-2 [4], 1000 nM	–	–	103	–	–
Caco-2 [4], 10000 nM	–	–	70.7	–	–
Calu-3 [7], 1 nM	–	–	93.6	–	–
Calu-3 [7], 10 nM	–	–	93.9	–	–
Calu-3 [7], 100 nM	–	–	91.8	–	–
Calu-3 [7], 1000 nM	–	–	97.5	–	–
Calu-3 [7], 10000 nM	–	–	75.1	–	–
HepG2 [8], 1 nM	–	–	90.8	–	–
HepG2 [8], 10 nM	–	–	91.5	–	–
HepG2 [8], 100 nM	–	–	87.5	–	–
HepG2 [8], 1000 nM	–	–	110	–	–
HepG2 [8], 10000 nM	–	–	69.1	–	–
U2OS [6], 1 nM	–	–	98.8	–	–
U2OS [6], 10 nM	–	–	96.9	–	–
U2OS [6], 100 nM	–	–	105	–	–
U2OS [6], 1000 nM	–	–	98.6	–	–
U2OS [6], 10000 nM	–	–	75.9	–	–
Vero E6 [5], 1 nM	–	–	91	–	–
Vero E6 [5], 10 nM	–	–	102	–	–
Vero E6 [5], 100 nM	–	–	95	–	–
Vero E6 [5], 1000 nM	–	–	96.9	–	–
Vero E6 [5], 10000 nM	–	–	82.8	–	–
[1], 0.3 µM	–	104	–	–	–
[1], 3 µM	–	107	–	–	–
[1], 10 µM	–	114	–	–	–
[1], 30 µM	–	96	–	–	–
[9], 0.3 µM	–	–	–	0.33	–
[9], 3 µM	–	–	–	0.54	–
[9], 10 µM	–	–	–	0.79	–
[9], 30 µM	–	–	–	0.29	–
[19], 0.3 µM	94	–	–	–	–
[19], 3 µM	67	–	–	–	–
[19], 10 µM	21	–	–	–	–
[19], 30 µM	29	–	–	–	–

drug-induced phospholipidosis [%], A549-ACE2 [3]
Details	0.3 µM	0.833333 µM	3.33333 µM	6.66667 µM	10 µM
24 h	0.77	3.06	53.9	92.5	102
48 h	1.56	0.335	38.1	83.7	91.7
72 h	2.71	0.0731	32.7	80.6	99.1

Details	drug sensitivity score	relative viability EC50 [µM]
Caco-2 [14]	1.1	–
Calu-3 [13]	–	> 10
Calu-3 [17]	1.3	–
HepG2 [18]	0.9	–
U2OS [12]	–	> 10
U2OS [16]	1.1	–
Vero E6 [11]	–	> 10
Vero E6 [15]	0.7	–

Nc1nc(NC[C@H]2CC[C@H](CNS(=O)(=O)c3cccc4ccccc34)CC2)nc2ccccc12
Details	SARS-CoV-2 infection rate [%]	cell count [%]	cell viability [%]	morphology score	phospholipidosis EC50 [µM]
A549-ACE2 [2], 24 h	–	–	–	–	1.03
A549-ACE2 [2], 48 h	–	–	–	–	3.12
A549-ACE2 [2], 72 h	–	–	–	–	6.11
Caco-2 [4], 1 nM	–	–	102	–	–
Caco-2 [4], 10 nM	–	–	97.4	–	–
Caco-2 [4], 100 nM	–	–	93.8	–	–
Caco-2 [4], 1000 nM	–	–	95	–	–
Caco-2 [4], 10000 nM	–	–	12.7	–	–
Calu-3 [7], 1 nM	–	–	89.3	–	–
Calu-3 [7], 10 nM	–	–	95.8	–	–
Calu-3 [7], 100 nM	–	–	98.8	–	–
Calu-3 [7], 1000 nM	–	–	98.1	–	–
Calu-3 [7], 10000 nM	–	–	0.9	–	–
HepG2 [8], 1 nM	–	–	98.2	–	–
HepG2 [8], 10 nM	–	–	99.6	–	–
HepG2 [8], 100 nM	–	–	101	–	–
HepG2 [8], 1000 nM	–	–	86.3	–	–
HepG2 [8], 10000 nM	–	–	0.8	–	–
U2OS [6], 1 nM	–	–	101	–	–
U2OS [6], 10 nM	–	–	101	–	–
U2OS [6], 100 nM	–	–	98.5	–	–
U2OS [6], 1000 nM	–	–	96.8	–	–
U2OS [6], 10000 nM	–	–	3.6	–	–
Vero E6 [5], 1 nM	–	–	97	–	–
Vero E6 [5], 10 nM	–	–	95.8	–	–
Vero E6 [5], 100 nM	–	–	99.9	–	–
Vero E6 [5], 1000 nM	–	–	91.6	–	–
Vero E6 [5], 10000 nM	–	–	4	–	–
[1], 0.1 µM	–	105	–	–	–
[1], 0.3 µM	–	101	–	–	–
[1], 1 µM	–	101	–	–	–
[1], 3 µM	–	123	–	–	–
[9], 0.1 µM	–	–	–	0.06	–
[9], 0.3 µM	–	–	–	-0.01	–
[9], 1 µM	–	–	–	0.19	–
[9], 3 µM	–	–	–	0.63	–
[19], 0.1 µM	101	–	–	–	–
[19], 0.3 µM	95	–	–	–	–
[19], 1 µM	90	–	–	–	–
[19], 3 µM	12	–	–	–	–

drug-induced phospholipidosis [%], A549-ACE2 [3]
Details	0.3 µM	0.833333 µM	3.33333 µM	6.66667 µM	10 µM	30 µM
24 h	4.45	16.1	78.1	111	51.3	58.3
48 h	5.61	11.2	82	124	–	–
72 h	6.01	9.91	62.8	129	–	–

Details	drug sensitivity score	relative viability EC50 [µM]
Caco-2 [10]	–	2.71
Caco-2 [14]	5.6	–
Calu-3 [13]	–	3.03
Calu-3 [17]	5.8	–
HepG2 [18]	7.8	–
HepG2 [20]	–	2.06
U2OS [12]	–	2.92
U2OS [16]	5.8	–
Vero E6 [11]	–	2.44
Vero E6 [15]	6.7	–
